Tests used:
IFN-γ = assay: Concanavalin-A-induced IFN-γ production from hPBMC; assay type: cell-based; details: Homo sapiens; Con-A-induced production from hPBMCs, 18 h
Procedure: Peripheral blood mononuclear cells (hPBMC) were harvested using Ficoll-Hypaque density gradient centrifugation (1.077 g/mL; Sigma Aldrich). hPBMCs were resuspended in RPMI 1640 culture medium (Gibco BRL, Pasley, UK) containing 10% FCS, 100 U/mL penicillin (Sigma Chemical Co. St Louis, Mo.) and […] streptomycin (Sigma Chemical Co. St Louis, Mo.) at 1×10^6 cells/mL. 1×10^5 hPBMCs/well were pre-treated with test compound or 0.5% DMSO (carrier control) for 30 min at 37° C. Subsequently, these cells were stimulated with 1 μg/mL concanavalin A (Sigma Chemical Co., St. Louis, Mo.). Following 18 h incubation at 37° C., supernatants were collected and stored at −70° C. until assayed for human IFN-γ by ELISA as described by the manufacturer (OptiEIA ELISA sets, BD BioSciences). In each experiment, cyclosporin (1 μM) was used as a positive control for inhibiting induced IFN-γ production.

IL-6 = assay: Gene expression profile using RTQ-PCR: IL-6; assay type: cell-based, human; details: 3 μM
Procedure: (§1) The effect of the compound of example 7 was measured in stimulated untreated cells from the monocytic cell line (THP-1), human monocytes and synovial cells from rheumatoid arthritis patient. The effect of the compound in the THP-1 cell line was measured in terms of gene expression and was expressed as fold changes as compared to the cell stimulated control with no drug treatment.
(§2) THP-1 cells, human monocytes and synovial cells were treated with compound of example 7 or vehicle (0.5% DMSO). Total RNA isolation using a commercial RNA extraction kit (Qiagen Corporation, Germany) The first-strand cDNA was synthesized from total RNA using first strand cDNA synthesis kit from Invitrogen Corporation (California, USA). This was followed by real time quantitative polymerase chain reaction (RTQ PCR) using gene specific primers and standard thermal program of initial denaturation at 95° C. for 5 min and cycles of 95° C. for 10 seconds, followed by 60° C. for 30 seconds (Realplex PCR machine from Eppendorf, Germany). Quantitative measurement of products made during PCR cycles was normalized against a housekeeping gene (Actin) and was used to measure the gene expression as fold changes as compared to respective control.

cMyc = assay: Gene expression profile using RTQ-PCR: cMyc; assay type: cell-based, human; details: 3 μM
Procedure: as §1, §2

MMP13 = assay: Gene expression profile using RTQ-PCR: MMP13; assay type: cell-based, human; details: 3 μM
Procedure: as §1, §2

MyD88 = assay: Gene expression profile using RTQ-PCR: MyD88; assay type: cell-based, human; details: 3 μM
Procedure: as §1, §2

[1] = test system: C57BL mice with DSS induced colitis; assay: DSS induced murine model of acute colitis; assay type: in vivo
Procedure: The assay was designed as in references, Laboratory Investigation, 80, 1541, (2000), and Faseb Journal, 19:792, (2005), the disclosure of which is incorporated by reference for the teaching of the assay.
Normal, in-house bred female C57BL mice weighing […], 8-10 weeks old, were used. The animals were housed in individually ventilated cages, three per cage, throughout the experimental period.
Experimental colitis was induced in mice by replacing drinking water with 3% (w/v) DSS (molecular weight 36,000-50,000, MP Biomedicals Inc., USA) solution. This solution was prepared in water, freshly every alternate day and was made available to the experimental animals ad libitum, from day 0 to day 10. A batch of six naïve animals received water instead of DSS during this period.
The animals were weighed every day and the record of body weights was maintained. The suspension of test compound (was prepared at a concentration of 0.05 mg/mL, in 0.5% (w/v) CMC after mixing with minimum quantity of Tween 80 necessary to wet the compound, and was administered orally, daily once to the animals at a volume of 10 mL/kg (dose=0.5 mg/kg). This treatment was initiated on day 6 and continued up to day 10. During this period, DSS control animals and naïve animals received CMC (mixed in the same proportion with 100 μL of Tween 80) at a dose of 10 mL/kg, daily once.
On day 11, the animals were sacrificed, blood was collected in heparinized tubes and the following parameters were studied; • 1. Rectal bleeding/blood in faeces • 2. Fecal consistency • 3. Bleeding in colon • 4. Colon weight • 5. Colon length • 6. Change in body weight on day 11 from that of day 0 • 7. Blood hemoglobin concentration
The data are represented in the following tables (Table 8, Table 9 and Table 10) as quantifiable parameters, descriptive parameters and actual scores. The descriptive parameters are represented by DAI. DAI is a research tool used to quantify the symptoms of the colitic animals. DAI is used in order to define response of the treatment or remission of the disease. In order to achieve this, various factors are studied. […] DAI is the sum of the scores of all factors.
On the last day of compound treatment (compound of example 7, 0.5 mg/kg, p.o., […]) the animals were euthanized humanely, blood samples were collected and the colon was excised. Anterior part of the colon was washed with normal saline to remove fecal material and then fixed in 10% NBF (Neutral buffered formalin). After 10 days of fixation the colon specimens were trimmed and processed overnight using automated tissue processor. Following day the specimens were blocked in paraffin and exposed to cold shock overnight at −18° C. Sections (5μ) were made from cross section of the colonic lumen and stained with routine Hematoxyllin (Sigma, USA) & Eosin (Loba Chemie, India) and mounted permanently. Slides were dried for 24 h and then graded histologically. The results were expressed as histological scores. Histological analysis was based on various parameters like presence of inflammatory cells, erosions, crypt destruction, edema and overall architectural changes graded on a score of 0 to 3, wherein 0 corresponds to absence, 1 corresponds to changes in 25% of the circumference of the colonic lumen, 2 corresponds to up to 50% and 3 corresponds to more than 50% of colonic circumference getting affected. All the scores were summed up to arrive to a total histological score for each section. Two random sections were graded and mean was calculated.

[2] = Human monocytes, 3 h, ± SE, N = 3
[3] = day 11, DSS mice, 0.5 mg/kg orally daily once, day 6 to day 10
[4] = score 0-3 (Table 9), DSS mice, 0.5 mg/kg orally daily once, day 6 to day 10

Which results are given for `C/C=C/C(O)C(C)/C=C/C(=N\O)C(C)C(O)C(C)C1OC(=O)/C(OC)=C/C(C)=C/C(C)C(O)C(CC)C(O)C(C)C/C(C)=C/C=C/C1OC` (stereo not shown) [Compound of example 7, (3Z,5E,13E,15E)-18-((5Z,6E,10E)-3,9-Dihydroxy-5-(hydroxymino)-4,8-dimethyldodeca-6,10-dien-2-yl)-9-ethyl-8,10-dihydroxy-3,17-dimethoxy-5,7,11,13-tetramethyl oxacyclooctadeca-3,5,13,15-tetraen-2-one]?
IC50 (IFN-γ): 0.2 µM; IL-6 gene expression (IL-6; [2]): −1.1 + 1.0 log fold change; IL-6 gene expression (IL-6; Synovial cells, 12 h, N = 1): −4.0 log fold change; IL-6 gene expression (IL-6; THP-1 cells, 12 h, ± SE, N = 3): −1.5 + 1.0 log fold change; cMyc gene expression (cMyc; [2]): −1.9 + 1.7 log fold change; cMyc gene expression (cMyc; Synovial cells, 12 h, N = 1): −0.5 log fold change; cMyc gene expression (cMyc; THP-1 cells, 12 h, ± SE, N = 3): −1.1 log fold change; MMP13 gene expression (MMP13; [2]): −2.2 + 2.0 log fold change; MMP13 gene expression (MMP13; Synovial cells, 12 h, N = 1): −4.0 log fold change; MMP13 gene expression (MMP13; THP-1 cells, 12 h, ± SE, N = 3): −4.1 + 3.5 log fold change; MyD88 gene expression (MyD88; [2]): −0.2 + 1.9 log fold change; MyD88 gene expression (MyD88; Synovial cells, 12 h, N = 1): −0.5 log fold change; MyD88 gene expression (MyD88; THP-1 cells, 12 h, ± SE, N = 3): −0.2 + 0.2 log fold change; Group mean histological score (colon) ([1]; 0.5 mg/kg, p.o., b.i.d, DSS control 7.50+0.96): 5.33+0.99; histological damage (colon) ([1]; DSS induced colitic C57BL mice): confer protection against histological damage; Hbg % ([1]; blood hemoglobin, day 11, DSS mice, 0.5 mg/kg orally daily once, day 6 to day 10): 10.77 ± 0.48 g %; Colon length [1, 3]: 7.33 ± 0.30; Colon weight mg [1, 3]: 273.8 ± 8.93 mg; Colon weight mg per cm [1, 3]: 37.6 ± 1.8 mg per cm; Change in body weight ([1]; day 11 from day 0, DSS mice, 0.5 mg/kg orally daily once, day 6 to day 10): +0.57 ± 0.28; severity of colitis ([1]; orally 0.5 mg/kg, mice with DSS induced colitis): reduces the severity of colitis; Blood in colon score [1, 4]: 0.61 ± 0.30; Fecal consistency score [1, 4]: 1.0 ± 0.50; Rectal bleeding score [1, 4]: 0.18 ± 0.15; Disease activity index ([1]; sum of the scores of all features, DSS mice, 0.5 mg/kg orally daily once, day 6 to day 10): 1.67 ± 0.47

From US20120225889A1, “USE OF MACROCYCLIC LACTONE DERIVATIVES FOR THE TREATMENT OF INFLAMMATORY DISORDERS” (PIRAMAL LIFE SCIENCES LIMITED, priority 2010, published 2012)
